Measured values taken from the supplement of paper PMC11061612.

Experiments:
Assay in all cases: Bliss excess, mean over the matrix (fraction); higher = more synergy
[1] = system: KP-4 (Pancreatic Carcinoma)
Summary of the method: (§1)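 Cell lines in DMEM/F12 or RPMI with 10% FBS were plated in 1536-well plates, held 24 hours at 37°C, 5% CO2, then given two-drug dose matrices for 72 hours (DMSO typically 0.2%). Viability was read by CellTiter-Glo 2.0 luminescence and scaled as inhibition from 0 (vehicle wells) to 1 (blank wells). Combination Emax is the second-highest inhibition in the matrix; Bliss excess is observed combination effect minus expected EA + EB − EA·EB, EA and EB being single-agent effects.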

[2] = system: MONO-MAC-6 (Acute Myeloid Leukemia)
Summary of the method: as §1

[3] = system: Raji (Burkitt's Lymphoma)
Summary of the method: as §1

[4] = system: NCI-H1876 (Small Cell Lung Carcinoma)
Summary of the method: as §1

[5] = system: NCI-H1341 (Small Cell Lung Carcinoma)
Summary of the method: as §1

GAK (Melanoma) = system: GAK (Melanoma)
Summary of the method: as §1

[6] = system: OAW-28 (Ovarian Carcinoma)
Summary of the method: as §1

NB1 (Neuroblastoma) = system: NB1 (Neuroblastoma)
Summary of the method: as §1

IST-MEL1 (Melanoma) = system: IST-MEL1 (Melanoma)
Summary of the method: as §1

[7] = system: BxPC-3 (Pancreatic Carcinoma)
Summary of the method: as §1

[8] = system: PL4 (Pancreatic Carcinoma)
Summary of the method: as §1

[9] = system: T84 (Colorectal Carcinoma)
Summary of the method: as §1

[10] = system: NCI-H3118 (Head and Neck Carcinoma)
Summary of the method: as §1

[11] = system: MS-1 (Small Cell Lung Carcinoma)
Summary of the method: as §1

[12] = system: SUP-M2 (T-Cell Non-Hodgkin's Lymphoma)
Summary of the method: as §1

[13] = system: NCI-H596 (Other Solid Carcinomas)
Summary of the method: as §1

[14] = system: OVCAR-3 (Ovarian Carcinoma)
Summary of the method: as §1

[15] = system: NAMALWA (Burkitt's Lymphoma)
Summary of the method: as §1

AM-38 (Glioblastoma) = system: AM-38 (Glioblastoma)
Summary of the method: as §1

NCI-H2373 (Mesothelioma) = system: NCI-H2373 (Mesothelioma)
Summary of the method: as §1

Structure (SMILES) | Bliss excess [1] | Bliss excess [2] | Bliss excess [3] | Bliss excess [4] | Bliss excess [5] | Bliss excess (GAK (Melanoma)) | Bliss excess [6] | Bliss excess (NB1 (Neuroblastoma)) | Bliss excess (IST-MEL1 (Melanoma)) | Bliss excess [7] | Bliss excess [8] | Bliss excess [9] | Bliss excess [10] | Bliss excess [11] | Bliss excess [12] | Bliss excess [13] | Bliss excess [14] | Bliss excess [15] | Bliss excess (AM-38 (Glioblastoma)) | Bliss excess (NCI-H2373 (Mesothelioma))
CCc1c2c(nc3ccc(O)cc13)-c1cc3c(c(=O)n1C2)COC(=O)[C@]3(O)CC [SN-38] + CN(C)CCCOc1ccc(-c2ccc3ncc4c(c3c2)n(C2CCOCC2)c(=O)n4C)cn1 [AZD0156] (first compound max 0.3 µM, 7x7, partner max 1 µM) | 0.0541 | 0.0746 | -0.0003 | -0.0111 | -0.0226 | 0.0182 | -0.0053 | -0.0476 | -0.0785 | 0.0025 | 0.0253 | 0.108 | 0.0864 | -0.0384 | 0.061 | 0.027 | -0.037 | 0.0402 | 0.149 | -0.0037
C[C@@H](c1ccc2nccn2c1)n1nnc2ncc(-c3cnn(C)c3)nc21 [Savolitinib] + CC1(C)CCC(CN2CCN(c3ccc(C(=O)NS(=O)(=O)c4ccc(NCC5CCOCC5)c([N+](=O)[O-])c4)c(Oc4cnc5[nH]ccc5c4)c3)CC2)=C(c2ccc(Cl)cc2)C1 [Venetoclax] (first compound max 1 µM, 7x7, partner max 1 µM) | -0.0556 | 0.0005 | -0.0114 | -0.0486 | 0.0535 | -0.0762 | -0.0331 | -0.0516 | -0.0306 | -0.0371 | -0.105 | -0.0649 | -0.0398 | -0.0098 | -0.0238 | -0.0369 | -0.0399 | -0.0098 | -0.0839 | -0.0512
C[C@@H](c1ccc2nccn2c1)n1nnc2ncc(-c3cnn(C)c3)nc21 [Savolitinib] + Cc1c2c(nn1C)CSCc1cc(n(C)n1)CSc1cc(c3ccccc3c1)OCCCc1c(C(=O)O)n(C)c3c-2c(Cl)ccc13 [AZD5991] (first compound max 1 µM, 7x7, partner max 1 µM) | -0.0204 | 0.0346 | -0.0383 | 0.0044 | 0.0274 | 0.0201 | -0.0129 | -0.0355 | -0.0243 | -0.0496 | -0.0492 | -0.0652 | -0.0268 | -0.0062 | -0.0292 | -0.0852 | -0.0341 | -0.05 | -0.0194 | -0.0618
Cn1cnc2c(F)c(Nc3ccc(Br)cc3Cl)c(C(=O)NOCCO)cc21 [Selumetinib] + C=CCn1c(=O)c2cnc(Nc3ccc(N4CCN(C)CC4)cc3)nc2n1-c1cccc(C(C)(C)O)n1 [AZD1775] (first compound max 10 µM, partner max 1 µM) | -0.0377 | -0.013 | -0.041 | -0.021 | 0.0153 | -0.008 | -0.0604 | -0.0731 | 0.0242 | 0.0243 | -0.0685 | -0.0495 | 0.0207 | -0.0347 | 0.0582 | -0.0821 | -0.0737 | -0.0104 | -0.0541 | -0.101
Cn1cnc2c(F)c(Nc3ccc(Br)cc3Cl)c(C(=O)NOCCO)cc21 [Selumetinib] + CC(C)n1c(=O)n(C)c2cnc3cc(F)c(-c4ccc(OCCCN5CCCCC5)nc4)cc3c21 [AZD1390] (first compound max 10 µM, 7x7, partner max 0.3 µM) | -0.0571 | -0.0166 | -0.0189 | 0.0068 | -0.0071 | -0.0415 | 0.0193 | -0.0646 | -0.013 | -0.0518 | 0.0102 | -0.0265 | 0.0525 | -0.02 | 0.007 | -0.0459 | -0.0387 | -0.0102 | -0.0389 | -0.0044
Cn1cnc2c(F)c(Nc3ccc(Br)cc3Cl)c(C(=O)NOCCO)cc21 [Selumetinib] + CCN(CCO)CCCOc1ccc2c(Nc3cc(CC(=O)Nc4cccc(F)c4)[nH]n3)ncnc2c1 [AZD2811] (first compound max 10 µM, 7x7, partner max 1 µM) | 0.0217 | 0.003 | -0.0166 | 0.0986 | 0.0264 | -0.069 | 0.0388 | -0.0138 | -0.0203 | -0.057 | 0.0097 | -0.0479 | 0.0259 | -0.0261 | -0.001 | -0.035 | -0.0239 | 0.0244 | -0.0208 | -0.0082
Cn1cnc2c(F)c(Nc3ccc(Br)cc3Cl)c(C(=O)NOCCO)cc21 [Selumetinib] + C[C@@H]1COCCN1C2=NC(=NC(=C2)C3(CC3)[S@](=N)(=O)C)C4=C5C=CNC5=NC=C4 [AZD6738] (first compound max 10 µM, 7x7, partner max 10 µM) | -0.0712 | -0.0052 | -0.0273 | 0.0218 | 0.0757 | -0.0003 | 0.046 | 0.0023 | -0.0217 | -0.0197 | 0.0866 | 0.1 | 0.0091 | -0.0521 | 0.012 | -0.0333 | -0.0202 | -0.0083 | 0.104 | -0.0019
CC(=O)Nc1cccc(-n2c(=O)n(C3CC3)c(=O)c3c(Nc4ccc(I)cc4F)n(C)c(=O)c(C)c32)c1 [Trametinib] + Cc1nc(-c2cn3c(n2)-c2ccc(-c4cnn(C(C)(C)C(N)=O)c4)cc2OCC3)n(C(C)C)n1 [Taselisib] (first compound max 1 µM, 7x7, partner max 10 µM) | 0.0745 | 0.244 | 0.0075 | 0.132 | 0.183 | 0.0805 | 0.158 | 0.156 | 0.122 | 0.354 | 0.0796 | 0.233 | 0.13 | 0.0912 | 0.106 | 0.0725 | 0.037 | 0.0825 | 0.117 | 0.0818
CC1(C)CCC(CN2CCN(c3ccc(C(=O)NS(=O)(=O)c4ccc(NCC5CCOCC5)c([N+](=O)[O-])c4)c(Oc4cnc5[nH]ccc5c4)c3)CC2)=C(c2ccc(Cl)cc2)C1 [Venetoclax] + C1CN(CCC1(C(=O)N[C@@H](CCO)C2=CC=C(C=C2)Cl)N)C3=NC=NC4=C3C=CN4 [Capivasertib] (first compound max 1 µM, 7x7, partner max 3 µM) | -0.0623 | -0.0214 | -0.0008 | -0.0952 | 0.0321 | -0.0305 | -0.0123 | -0.0596 | -0.0762 | -0.0171 | -0.0363 | -0.0518 | -0.0641 | -0.0572 | -0.0232 | -0.0211 | -0.0288 | -0.0126 | -0.0742 | -0.0774
CC1(C)CCC(CN2CCN(c3ccc(C(=O)NS(=O)(=O)c4ccc(NCC5CCOCC5)c([N+](=O)[O-])c4)c(Oc4cnc5[nH]ccc5c4)c3)CC2)=C(c2ccc(Cl)cc2)C1 [Venetoclax] + C=CCn1c(=O)c2cnc(Nc3ccc(N4CCN(C)CC4)cc3)nc2n1-c1cccc(C(C)(C)O)n1 [AZD1775] (first compound max 1 µM, partner max 1 µM) | -0.0385 | 0.0336 | -0.023 | -0.001 | 0.101 | 0.0074 | -0.009 | -0.0466 | 0.0462 | 0.092 | -0.0751 | -0.0498 | -0.0416 | 0.0465 | 0.03 | -0.0783 | -0.067 | 0.0438 | -0.0561 | -0.0789
CC1(C)CCC(CN2CCN(c3ccc(C(=O)NS(=O)(=O)c4ccc(NCC5CCOCC5)c([N+](=O)[O-])c4)c(Oc4cnc5[nH]ccc5c4)c3)CC2)=C(c2ccc(Cl)cc2)C1 [Venetoclax] + CCN(CCO)CCCOc1ccc2c(Nc3cc(CC(=O)Nc4cccc(F)c4)[nH]n3)ncnc2c1 [AZD2811] (first compound max 1 µM, 7x7, partner max 1 µM) | -0.0338 | 0.101 | -0.016 | 0.129 | 0.0606 | -0.0537 | 0.0375 | -0.0139 | 0.0278 | 0.0003 | -0.0704 | -0.0249 | -0.0097 | -0.045 | 0.0126 | -0.0394 | -0.0087 | 0.0894 | -0.0506 | -0.0047
CC1(C)CCC(CN2CCN(c3ccc(C(=O)NS(=O)(=O)c4ccc(NCC5CCOCC5)c([N+](=O)[O-])c4)c(Oc4cnc5[nH]ccc5c4)c3)CC2)=C(c2ccc(Cl)cc2)C1 [Venetoclax] + CN(C)CCCOc1ccc(-c2ccc3ncc4c(c3c2)n(C2CCOCC2)c(=O)n4C)cn1 [AZD0156] (first compound max 1 µM, 7x7, partner max 1 µM) | -0.0344 | 0.0233 | 0.0279 | 0.0501 | 0.007 | -0.0378 | 0.0076 | -0.0278 | -0.0207 | -0.0304 | -0.0397 | -0.0452 | 0.005 | 0.0128 | 0.0191 | -0.0377 | -0.0303 | 0.0387 | -0.0183 | -0.0564
